# In patent publication US20130035326A1 (AMBIT BIOSCIENCES CORPORATION, priority 2009, published 2013):
# pIC50, pKd: −log10 of the molar value.
# Key:
# FLT3 kinase = target: T1, FLT3 kinase (Homo sapiens, UniProt P36888); assay: Competition binding assay, FLT3 Kd
# T1 construct: made in house; host or cells: T7 phage display or HEK-293 cells
# T1 sequence (P36888 27-993): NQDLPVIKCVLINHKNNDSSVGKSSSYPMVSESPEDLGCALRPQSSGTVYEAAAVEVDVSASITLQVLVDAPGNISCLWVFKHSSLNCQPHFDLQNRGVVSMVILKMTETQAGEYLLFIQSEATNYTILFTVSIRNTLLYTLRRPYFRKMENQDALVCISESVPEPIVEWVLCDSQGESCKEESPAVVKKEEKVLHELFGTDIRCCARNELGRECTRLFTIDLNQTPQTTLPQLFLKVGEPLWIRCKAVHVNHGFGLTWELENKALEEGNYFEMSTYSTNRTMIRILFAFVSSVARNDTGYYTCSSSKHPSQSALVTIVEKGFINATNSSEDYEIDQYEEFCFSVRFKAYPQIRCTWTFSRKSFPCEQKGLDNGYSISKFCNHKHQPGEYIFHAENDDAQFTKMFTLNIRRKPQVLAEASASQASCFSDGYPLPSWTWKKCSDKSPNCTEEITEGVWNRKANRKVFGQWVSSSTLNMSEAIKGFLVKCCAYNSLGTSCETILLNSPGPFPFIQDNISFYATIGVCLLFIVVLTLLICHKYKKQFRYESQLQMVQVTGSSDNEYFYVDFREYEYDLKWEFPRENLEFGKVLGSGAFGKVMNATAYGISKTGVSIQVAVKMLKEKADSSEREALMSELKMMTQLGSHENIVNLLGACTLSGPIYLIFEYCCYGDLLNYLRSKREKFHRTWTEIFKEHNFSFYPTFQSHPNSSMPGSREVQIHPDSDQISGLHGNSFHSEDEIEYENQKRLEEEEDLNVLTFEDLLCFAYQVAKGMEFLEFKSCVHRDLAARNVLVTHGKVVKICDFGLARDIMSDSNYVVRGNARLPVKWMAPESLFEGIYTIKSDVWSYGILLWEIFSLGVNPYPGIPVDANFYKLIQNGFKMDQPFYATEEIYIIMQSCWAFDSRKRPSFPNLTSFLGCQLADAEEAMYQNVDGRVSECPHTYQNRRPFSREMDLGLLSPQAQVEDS
# How it was run: (§1)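 Kinases expressed as T7 phage fusions or in HEK-293 cells with DNA tags competed with test compound for immobilized biotinylated affinity ligand on streptavidin beads. Binding ran 1 hour at room temperature in SeaBlock/PBS/Tween/DTT buffer. Bound kinase was eluted with non-biotinylated ligand and quantified by qPCR; Kd from eleven-point threefold dilutions.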
# KIT kinase = target: T2, KIT kinase (Homo sapiens, UniProt P10721); assay: Competition binding assay, KIT Kd
# T2 construct: made in house; host or cells: T7 phage display or HEK-293 cells
# How it was run: as §1
# CSF-1R kinase = target: T3, CSF-1R kinase (Homo sapiens, UniProt P07333); assay: Competition binding assay, CSF-1R Kd
# T3 construct: made in house; host or cells: T7 phage display or HEK-293 cells
# How it was run: as §1
# MV4-11 cells = assay: MV4-11 cell proliferation assay (Alamar Blue); assay type: cell-based; settings: Homo sapiens, MV4-11, 72 h, 3 days incubation
# How it was run: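 Flt3-ITD MV4-11 cells were serum-starved overnight in Iscove's with 0.5% FBS, then given compound at 9 half-log concentrations (0.5% DMSO) for 3 days at 37° C. Alamar Blue reduction was read after 3 h by fluorescence (560/590 nm). IC50 is the mean of duplicates versus negative control.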
# [1] = target: kinase panel containing either 359 or 386 distinct kinases; assay: Selectivity score S10 from competition binding against a panel of kinases; settings: compounds at 10 μM; for Kinase specificty: S(10)-386 panel: panel of 386 distinct kinases; for Kinase specificty: S(10)-359 panel: panel of 359 distinct kinases
# How it was run: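 Compounds were tested at 10 μM in competition binding against T7 phage-fused or HEK-293-expressed DNA-tagged kinases with immobilized affinity ligands, 1 h at room temperature. Bound kinase was quantified by qPCR as percent of DMSO control; S10 is the fraction of distinct kinases (mutants excluded) with POC below 10.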
# T2 sequence (P10721 26-976): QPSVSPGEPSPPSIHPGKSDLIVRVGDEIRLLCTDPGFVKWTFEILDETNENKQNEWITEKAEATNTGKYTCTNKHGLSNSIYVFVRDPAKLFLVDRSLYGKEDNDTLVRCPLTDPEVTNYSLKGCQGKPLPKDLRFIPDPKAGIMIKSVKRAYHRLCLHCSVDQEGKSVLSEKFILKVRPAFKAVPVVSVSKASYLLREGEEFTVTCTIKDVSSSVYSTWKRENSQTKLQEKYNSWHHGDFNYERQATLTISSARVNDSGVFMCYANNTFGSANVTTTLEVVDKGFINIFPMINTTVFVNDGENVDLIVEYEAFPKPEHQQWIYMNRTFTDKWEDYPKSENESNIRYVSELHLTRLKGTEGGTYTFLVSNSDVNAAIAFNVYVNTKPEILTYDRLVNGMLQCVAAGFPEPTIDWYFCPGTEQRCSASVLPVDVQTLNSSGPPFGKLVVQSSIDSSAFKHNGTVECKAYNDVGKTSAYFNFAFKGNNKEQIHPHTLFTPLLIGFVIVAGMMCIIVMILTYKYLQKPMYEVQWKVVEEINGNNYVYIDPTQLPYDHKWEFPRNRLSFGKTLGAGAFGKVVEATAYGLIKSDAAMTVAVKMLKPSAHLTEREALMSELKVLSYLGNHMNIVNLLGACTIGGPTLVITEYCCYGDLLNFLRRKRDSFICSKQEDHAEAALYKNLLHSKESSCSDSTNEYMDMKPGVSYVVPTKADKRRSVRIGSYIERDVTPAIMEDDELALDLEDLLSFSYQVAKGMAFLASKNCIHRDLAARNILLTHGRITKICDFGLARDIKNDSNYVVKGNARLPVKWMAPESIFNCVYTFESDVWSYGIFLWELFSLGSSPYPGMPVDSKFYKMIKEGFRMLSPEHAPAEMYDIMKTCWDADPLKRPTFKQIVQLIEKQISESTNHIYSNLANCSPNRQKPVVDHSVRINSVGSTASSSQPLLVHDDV
# T3 sequence (P07333 20-972): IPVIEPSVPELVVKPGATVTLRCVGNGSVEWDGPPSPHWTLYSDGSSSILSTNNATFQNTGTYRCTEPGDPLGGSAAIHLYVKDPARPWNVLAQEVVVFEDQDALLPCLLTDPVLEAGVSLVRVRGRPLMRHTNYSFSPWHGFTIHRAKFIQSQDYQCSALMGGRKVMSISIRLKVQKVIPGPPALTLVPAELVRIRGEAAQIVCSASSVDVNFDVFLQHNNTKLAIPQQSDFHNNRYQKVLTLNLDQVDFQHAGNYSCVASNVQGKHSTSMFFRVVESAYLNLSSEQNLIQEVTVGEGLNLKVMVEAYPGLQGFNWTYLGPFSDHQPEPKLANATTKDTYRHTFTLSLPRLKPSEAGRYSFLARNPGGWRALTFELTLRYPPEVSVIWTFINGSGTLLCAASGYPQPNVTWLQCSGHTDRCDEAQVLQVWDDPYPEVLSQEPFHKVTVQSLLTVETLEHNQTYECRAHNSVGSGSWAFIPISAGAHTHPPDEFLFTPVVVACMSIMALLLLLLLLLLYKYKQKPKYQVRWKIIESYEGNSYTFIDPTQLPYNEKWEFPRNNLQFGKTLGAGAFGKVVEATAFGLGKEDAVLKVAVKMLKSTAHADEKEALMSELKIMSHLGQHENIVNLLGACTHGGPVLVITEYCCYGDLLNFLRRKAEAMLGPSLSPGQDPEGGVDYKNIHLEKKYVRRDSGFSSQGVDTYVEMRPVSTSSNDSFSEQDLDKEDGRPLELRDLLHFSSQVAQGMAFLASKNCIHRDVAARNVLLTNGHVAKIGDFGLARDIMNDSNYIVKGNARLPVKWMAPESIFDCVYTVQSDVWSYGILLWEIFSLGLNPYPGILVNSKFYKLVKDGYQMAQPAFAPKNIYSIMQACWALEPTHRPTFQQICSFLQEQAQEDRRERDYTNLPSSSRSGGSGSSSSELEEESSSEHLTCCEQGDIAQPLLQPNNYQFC
SMILES,pKd (FLT3 kinase),pKd (KIT kinase),pKd (CSF-1R kinase),pIC50 (MV4-11 cells),Kinase specificty: S(10)-386 panel [1],Kinase specificty: S(10)-359 panel [1]
"Nc1ccc(-c2ccc(CC(=O)Nc3cc(C4(C(F)(F)F)CC4)on3)cc2)cn1 [Example 73, 2-(4-(6-aminopyridin-3-yl)phenyl)-N-(5-(1-(trifluoromethyl)cyclopropyl)isoxazol-3-yl)acetamide]",≥ 9.00,8.00 to 9.00,≥ 8.00,≥ 9.00,A (A≦0.1),
"CC(C)(C)c1cc(NC(=O)Nc2ccc(-c3cnc4c(c3)COCCN4)cc2)no1 [Example 21, 1-(5-tert-butylisoxazol-3-yl)-3-(4-(1,2,3,5-tetrahydropyrido[2,3-e][1,4]oxazepin-7-yl)phenyl)urea]",≥ 9.00,≥ 9.00,≥ 8.00,8.00 to 9.00,,B (0.1<B≦0.2 nM)
"CN(C)CCNc1ncc(-c2ccc(NC(=O)Nc3cc(C(C)(C)C)on3)cc2)cn1 [Example 57, 1-(5-tert-butylisoxazol-3-yl)-3-(4-(2-(2-(dimethylamino)ethylamino)pyrimidin-5-yl)phenyl)urea]",≥ 9.00,≥ 9.00,≥ 8.00,7.00 to 8.00,,A (A≦0.1)
"Cc1ccc(F)c(NC(=O)Nc2ccc(-c3cnc(NCCN4CCOCC4)nc3)cc2)c1 [Example 55, 1-(2-fluoro-5-methylphenyl)-3-(4-(2-(2-morpholinoethylamino)pyrimidin-5-yl)phenyl)urea]",8.00 to 9.00,≥ 9.00,≥ 8.00,6.30 to 7.00,,A (A≦0.1)
"CC(C)(C)c1cc(NC(=O)Nc2ccc(-c3ccc(N)nc3)c(Cl)c2)no1 [Example 16, 1-(4-(6-aminopyridin-3-yl)-3-chlorophenyl)-3-(5-tert-butylisoxazol-3-yl)urea]",≥ 9.00,≥ 9.00,7.00 to 8.00,8.00 to 9.00,,B (0.1<B≦0.2 nM)
"CC(C)(C)c1cc(NC(=O)Cc2ccc(-c3ccc(N)nc3)cc2F)no1 [Example 78, 2-(4-(6-aminopyridin-3-yl)-2-fluorophenyl)-N-(5-tert-butylisoxazol-3-yl)acetamide]",≥ 9.00,8.00 to 9.00,≥ 8.00,≥ 9.00,B (0.1<B≦0.2 nM),
"CC(C)(C)c1cc(NC(=O)Cc2ccc(-c3ccc(N)nc3F)cc2)no1.CS(=O)(=O)O [Example 95, 5-(4-(2-(5-tert-butylisoxazol-3-ylamino)-2-oxoethyl)phenyl)-6-fluoropyridin-2-aminium methanesulfonate]",≥ 9.00,8.00 to 9.00,≥ 8.00,≥ 9.00,A (A≦0.1),
"O=C(Nc1ccc(-c2cnc(NCCN3CCOCC3)nc2)cc1)Nc1cc(C2(C(F)(F)F)CC2)on1 [Example 53, 1-{4-[2-(2-morpholin-4-yl-ethylamino)-pyrimidin-5-yl]-phenyl}-3-[5-(1-trifluoromethyl-cyclopropyl)-isoxazol-3-yl]urea]",≥ 9.00,≥ 9.00,≥ 8.00,8.00 to 9.00,,B (0.1<B≦0.2 nM)
"CC(C)(F)c1cc(NC(=O)Cc2ccc(-c3ccc(N)nc3)cc2)on1.CS(=O)(=O)O [Example 101, 5-(4-(2-(3-(2-fluoropropan-2-yl)isoxazol-5-ylamino)-2-oxoethyl)phenyl)pyridin-2-aminium methanesulfonate]",≥ 9.00,≥ 9.00,≥ 8.00,8.00 to 9.00,A (A≦0.1),
"Nc1ncc(-c2ccc(NC(=O)Cc3cccc(C(F)(F)F)c3)cc2)cn1 [Example 46, N-(4-(2-aminopyrimidin-5-yl)phenyl)-2-(3-(trifluoromethyl)phenyl)acetamide]",8.00 to 9.00,≥ 9.00,7.00 to 8.00,7.00 to 8.00,,A (A≦0.1)
"CC(C)(C)c1cc(NC(=O)Cc2ccc(-c3ccc(NCCN4CCOCC4)nc3)cc2)on1.CS(=O)(=O)O [Example 96, 5-(4-(2-(3-tert-butylisoxazol-5-ylamino)-2-oxoethyl)phenyl)-N-(2-morpholinoethyl)pyridin-2-aminium methanesulfonate]",≥ 9.00,≥ 9.00,≥ 8.00,8.00 to 9.00,B (0.1<B≦0.2 nM),
"CC(C)(C)c1cc(NC(=O)Nc2ccc(-c3cnc(N)c(COCCO)c3)cc2)no1 [Example 22, 1-(4-(6-amino-5-((2-hydroxyethoxy)methyl)pyridin-3-yl)phenyl)-3-(5-tert-butylisoxazol-3-yl)urea]",≥ 9.00,≥ 9.00,≥ 8.00,≥ 9.00,,B (0.1<B≦0.2 nM)

# The next lines start with the values.
pKd (FLT3 kinase),pKd (KIT kinase),pKd (CSF-1R kinase),pIC50 (MV4-11 cells),Kinase specificty: S(10)-386 panel [1],Kinase specificty: S(10)-359 panel [1],SMILES
≥ 9.00,7.00 to 8.00,≥ 8.00,8.00 to 9.00,B (0.1<B≦0.2 nM),,"CC(C)(C)c1cc(NC(=O)Cc2ccc(-c3cnc(N)cc3F)cc2)no1.CS(=O)(=O)O [Example 151, 5-(4-(2-(5-tert-butylisoxazol-3-ylamino)-2-oxoethyl)phenyl)-4-fluoropyridin-2-aminium methanesulfonate]"
≥ 9.00,≥ 9.00,≥ 8.00,≥ 9.00,A (A≦0.1),,"CC(=O)O.Nc1ccc(-c2ccc(CC(=O)Nc3cc(C4(CF)CC4)on3)cc2)cn1 [Example 103, 5-(4-(2-((5-(1-(fluoromethyl)cyclopropyl)isoxazol-3-yl)amino)-2-oxoethyl)phenyl)pyridin-2-aminium acetate]"
≥ 9.00,8.00 to 9.00,≥ 8.00,≥ 9.00,A (A≦0.1),,Nc1ccc(-c2ccc(CC(=O)Nc3cc(C4(C(F)(F)F)CCC4)on3)cc2)c(F)n1 [Example 167]
8.00 to 9.00,8.00 to 9.00,7.00 to 8.00,8.00 to 9.00,B (0.1<B≦0.2 nM),,"CC(C)(C)c1cc(NC(=O)Cc2ccc(-c3cnc4[nH]c(=O)oc4c3)cc2)no1 [Example 141, N-(5-tert-butylisoxazol-3-yl)-2-(4-(2-oxo-2,3-dihydrooxazolo[4,5-b]pyridin-6-yl)phenyl)acetamide]"
≥ 9.00,8.00 to 9.00,≥ 8.00,8.00 to 9.00,B (0.1<B≦0.2 nM),,"CC1(c2cc(NC(=O)Cc3ccc(-c4cnc(N)c(C(F)(F)F)c4)cc3)no2)COC1.CS(=O)(=O)O [Example 135, 5-(4-(2-((5-(3-methyloxetan-3-yl)isoxazol-3-yl)amino)-2-oxoethyl)phenyl)-3-(trifluoromethyl)pyridin-2-aminium methanesulfonate]"
≥ 9.00,8.00 to 9.00,≥ 8.00,≥ 9.00,B (0.1<B≦0.2 nM),,"CC(=O)O.CC1(c2cc(NC(=O)Cc3ccc(-c4ccc(N)nc4)cc3)no2)CC1(F)F (centres unmarked) [Example 102, 5-(4-(2-((5-(2,2-difluoro-1-methylcyclopropyl)isoxazol-3-yl)amino)-2-oxoethyl)phenyl)pyridin-2-aminium acetate]"
≥ 9.00,8.00 to 9.00,≥ 8.00,≥ 9.00,B (0.1<B≦0.2 nM),,"Nc1ccc(-c2ccc(CC(=O)Nc3cc(C4(C(F)(F)F)CCC4)on3)cc2)cn1 [Example 124, 2-(4-(6-aminopyridin-3-yl)phenyl)-N-(5-(1-(trifluoromethyl)cyclobutyl)isoxazol-3-yl)acetamide]"
